From the supplement of paper PMC10307832

Assays:
[1] = compound: C[C@@H](C(=O)N[C@@H](C1CCCCC1)C(=O)N2CCC[C@H]2C(=O)N[C@@H]3[C@@H](CC4=CC=CC=C34)OCC#CC#CCO[C@@H]5CC6=CC=CC=C6[C@@H]5NC(=O)[C@@H]7CCCN7C(=O)[C@H](C8CCCCC8)NC(=O)[C@H](C)NC)NC [AZD5582] + CC(=O)Nc1cccc(-n2c(=O)n(C3CC3)c(=O)c3c(Nc4ccc(I)cc4F)n(C)c(=O)c(C)c32)c1 [Trametinib] (partner 0.02 µM); test: relative viability (nuclei count vs DMSO), 5 days (fraction); higher = more cells survive
Method in brief: (§1)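 Lung cancer cell lines in 1536-well plates were dosed by pin tool the day after seeding, either with one drug alone or with a fixed anchor-drug dose plus five library-drug doses (not always all listed) in √10 steps. After 5 days, cells were fixed and their nuclei stained in one step (final 0.05% Triton X-100, 1% formaldehyde, 1 ug/ml Hoechst), then counted on 4× images. Relative viability is the nuclei count in treated wells divided by that in vehicle wells. Values are medians of duplicate plates.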

[2] = compound: Cn1nnc2c(C(N)=O)ncn2c1=O [Temozolomide] + Cc1nc(Nc2ncc(C(=O)Nc3c(C)cccc3Cl)s2)cc(N2CCN(CCO)CC2)n1 [Dasatinib] (partner 0.075 µM); test: as above
Method in brief: as §1

Row | Cell Line | relative viability ([1]; first compound 0.001581 µM) | relative viability ([1]; first compound 0.005 µM) | relative viability ([1]; first compound 0.01581 µM) | relative viability ([1]; first compound 0.05 µM) | relative viability ([2]; first compound 0.2 µM) | relative viability ([2]; first compound 0.6325 µM) | relative viability ([2]; first compound 2 µM) | relative viability ([2]; first compound 6.325 µM) | relative viability ([2]; first compound 20 µM)
1 | SW 1573 | 0.473 | 0.586 | 0.537 | 0.662 | 0.532 | 0.533 | 0.594 | 0.355 | 0.489
2 | UMC-11 | 0.624 | 0.679 | 0.629 | 0.417 | 0.567 | 0.469 | 0.536 | 0.489 | 0.442
